Results as given in patent US9713591B2, “Composition of matter comprising liposomes embedded in a polymeric matrix and methods of using same” (Yissum Research Development Company of the Hebrew …, priority 2008, dated 2017).
Where “and” joins values, the source holds several entries; their conditions need not be identical. Equal entries are not always repeated. Structures can show the parent of a compound that is named as a salt.

Key:
[1] = test system: male Swiss-Webster mice; conditions: previously determined (Grant et al. 2004, U.S. Pat. No. 6,162,462); cited from earlier work
[2] = cited from earlier work
[3] = test system: male Swiss-Webster mice; experiment: Analgesic efficacy in mouse model: electrical stimulation of abdominal skin, vocalization threshold, analgesia score and duration; format: in vivo; design: key to analgesia score, 15 min / analgesia score, 30 min / analgesia score, 45 min / analgesia score, 60 min / analgesia score, 75 min / analgesia score, 90 min / analgesia score, 105 min / analgesia score, 120 min / analgesia score, 135 min: 1 = analgesia; 0 = no analgesia; 10 = partial analgesia; key to analgesia score 150′ / analgesia score 5′ / analgesia score 30′ / analgesia score 60′ / analgesia score 75′ / analgesia score 90′ / analgesia score 105′ / analgesia score 120′ / analgesia score 135′: If the anesthesia was complete the numeric value given was 1.0; when analgesia was partial (incomplete) it received the numeric value of 10.0 in the Table 1 and in other Tables a score of 0.5; for no anesthesia the numeric score was 0
From the text: Analgesic efficacy in male Swiss Webster mouse model: Testing for analgesia was done by electrical stimulation of mice skin as described elsewhere (G. J. Grant et al, Pharmaceutical Research, 18, no 3, 336-343, 2001). Pain as electrical stimulation at the desired intensity was inflicted to the skin of shaved mice abdomen. The current generator (model S48, Grass Instruments (W. Warwick, R.I. USA) was used. Mice (male Swiss-Webster, 26±3 gr (n=7 per group) were used. The mice were shaved the hair overlying the abdomen and tested prior to injection to determine the Individual vocalization threshold of each mice. Than the mice were injected with (0.3-0.4 ml of one of the following: free bupivacaine, or LMVV-BUP or various LMVV entrapped in Ca-alginate or chitosan-oxalate cross linked hydrogels through 30G needle. The analgesia duration was than followed as specified in the experiment itself. All experiments were approved and ratified by the HUJI ethic committee.
Analysis of the in vivo mice analgesia: A numerical score to the spreadsheet was introduced for the evaluation of the analgesic effect of various liposome preparations performance in vivo: For each time period (e.g. 4 hrs, 8 hrs etc) a numeric value to each mouse in the experiment was given. If the anesthesia was complete the numeric value given was 1.0; when analgesia was partial (incomplete) it received the numeric value of 10.0 in the Table 1 and in other Tables a score of 0.5 and for no anesthesia the numeric score was 0. The mean for each subgroup was calculated separately (i.e. 1% 300 μl, 2%[…]).
Testing for analgesia was done by electrical stimulation of the skin directly overlying the abdomen at the site of injection using a current generator (model S48, Grass Instruments) as described in Grant et al 2001. (G. J. Grant et al, pharmaceutical research, vol 18, no 3, 336-343, 2001), and in Methods above.
Mice (male Swiss-Webster 26±3 gr) were tested prior to injection to determine the vocalization threshold than were injected with liposomal BUP or free BUP than followed by determination of analgesia duration (The duration of the main in vivo screening study was 2 days and started after a preliminary study using two different injection volumes of formulation #4 (referred to as the PILOT in Table 9A) was performed. […]
Testing for analgesia was performed by electrical stimulation of mice skin as described elsewhere (G. J. Grant et al, Pharmaceutical Research, 18, no 3, 336-343, 2001). Pain by electrical stimulation at the desired intensity was applied to the skin of shaved mice abdomen. The current generator (model S48, Grass Instruments (W. Warwick, R.I. USA) was used. Mice (male Swiss-Webster, 26±3 gr (n=8 per group) were used. The mice were shaved the hair overlying the abdomen and tested prior to injection to determine the Individual vocalization threshold of each mice. Than the mice were injected through 30G needle with 0.25 ml of one of the following formulation: • 1—Alginate beads containing LMVV-BUP (010609), were stored at 4 c for 2 months in 0.5% bup, PH=5.5 (see B3). The external solution of the beads were removed before injection without washing them. • 2—Alginate beads containing LMVV-BUP (010609), were stored at 4 c for 2 months in 2% bup, PH=5.5 (see B3). The external solution of the beads were removed and the beads washed (2.5 ml saline×5) before injection. • 3—Alginate beads containing LMVV-BUP (010609), were stored at 4 c for 2 months in 1% bup, PH=5.5 (see B3). The external solution of the beads were removed before injection without washing them. • 4—Alginate beads containing LMVV-BUP (010609), were stored at 4 c for 2 months in saline, PH=5.5 (see B3). The external solution of the beads were removed before injection without washing them. • 5—LMVV-BUP (010609) were stored at 4 c for 2 months in saline PH=5.5. • 6—BLANK: Aginate beads containing LMVV without bup, were stored at 4 c for 2 months in saline PH=5.5. […]

[4] = Free (non liposomal) and total bupivacaine determination by HPLC (% free BUP in the preparation); format: physicochemical; conditions: Example 2 samples
Protocol: Bupivacaine determination: free (non liposomal) or total (liposomal plus free) concentration of bupivacaine was measured by HPLC (Grant et al Parm. Res., 2001 18, N3, 336-343; Anesthesiology, 2004, 101, 133-137).
Drug/lipid ratio determination for hydrogel beads: The washed beads were injected through a 25G×⅝″ (0.5 mm×16 mm) syringe needle to have homogenous dispersion and were diluted ×10 with saline: • 50 μl and 100 μl used for PL. determination. • 100 μl centrifuged 10′ 2000 g at 4° C. and the supernatant diluted ×10 with isopropanol (IPA) to determine free bupivacaine. • 100 or 200 μl heated in boiling water, than centrifuged 10′ at 2000 g. The supernatant was diluted ×10 with IPA to determine total bupivacaine by HPLC.
All samples for bupivacaine determination were centrifuged for 2 min. at 5000 g (using Eppendof centrifuge) after dilution in IPA. The upper phase was removed and analyzed by HPLC.
All liposomal formulations were analyzed for free non liposomal BUP and total BUP before the in vivo experiment followed by their concentration to reach the level of 2% (w/w) BUP (for liposome formulations #1, 2, 3, 5, 6, 8) and to 1% (w/w BUP for liposome formulations #4 & 7). BUP was loaded into the liposomes either by active loading (CA or AS gradient) or by passive loading as described in Table 8.
Free Bup (Non Liposomal Bup) Determination: […]

[5] = Bup Conc 0.25%, Volume 150 ul, 0.375 mg Bup, individual mice
[6] = Bup Conc 0.25%, Volume 150 ul, 0.375 mg Bup, individual mice, hydrochloride
[7] = Bup Conc 0.25%, Volume 300 ul, 0.75 mg Bup, individual mice
[8] = Bup Conc 0.25%, Volume 300 ul, 0.75 mg Bup, individual mice, hydrochloride
[9] = Bup Conc 0.50%, Volume 150 ul, 0.75 mg Bup, individual mice
[10] = Bup Conc 0.50%, Volume 150 ul, 0.75 mg Bup, individual mice, hydrochloride

Structure (SMILES): CCCCN1CCCCC1C(=O)Nc1c(C)cccc1C (stereo not shown) [Standard Bupivacaine, Bupivacaine hydrochloride]
- duration of analgesic effect post injection [1]: approximately 75 minutes
- solubility limit of bupivacaine at pH 5.5 ([2]; 25° C., pH 5.5): below 2.9%
- solubility of bupivacaine 25° C. at pH 2.0 ([2]; pH 2.0): 7.5%
- mass solubility of bupivacaine at 25° C. in pH 5 ([2]; pH 5): 2.9%
- mass solubility of bupivacaine at 25° C. in pH 6 ([2]; pH 6): 0.55%
- analgesia score, 15 min [3, 5]: 1
- analgesia score, 30 min [3, 5]: 1
- analgesia score, 45 min [3, 5]: 1
- analgesia score, 90 min [3, 5]: 0
- analgesia score, 60 min [3, 6]: 0 (5×) and 1 (2×) and 10
- analgesia score, 75 min [3, 6]: 0 (7×) and 10
- analgesia score, 15 min [3, 7]: 1
- analgesia score, 30 min [3, 7]: 1
- analgesia score, 45 min [3, 7]: 1
- analgesia score, 60 min [3, 7]: 1
- analgesia score, 135 min [3, 7]: 0
- analgesia score, 75 min [3, 8]: 0 and 1 (7×)
- analgesia score, 90 min [3, 8]: 0 and 1 (5×) and 10 (2×)
- analgesia score, 105 min [3, 8]: 0 (5×) and 10 and 1 (2×)
- analgesia score, 120 min [3, 8]: 0 (7×) and 10
- analgesia score, 15 min [3, 9]: 1
- analgesia score, 30 min [3, 9]: 1
- analgesia score, 45 min [3, 9]: 1
- analgesia score, 105 min [3, 9]: 0
- analgesia score, 60 min [3, 10]: 1 (7×) and 10
- analgesia score, 75 min [3, 10]: 1 (6×) and 0 and 10
- analgesia score, 90 min [3, 10]: 0 (4×) and 10 (2×) and 1 (2×)
- analgesia score, 15 min ([3]; per mouse, free BUP 0.25%, 150 ul, 0.375 mg Bup, 15 min): 1
- analgesia score, 30 min ([3]; per mouse, free BUP 0.25%, 150 ul, 0.375 mg Bup, 30 min): 1
- analgesia score, 45 min ([3]; per mouse, free BUP 0.25%, 150 ul, 0.375 mg Bup, 45 min): 1
- analgesia score, 60 min ([3]; per mouse, free BUP 0.25%, 150 ul, 0.375 mg Bup, 60 min, hydrochloride): 0 (5×) and 1 (2×) and 10
- analgesia score, 75 min ([3]; per mouse, free BUP 0.25%, 150 ul, 0.375 mg Bup, 75 min, hydrochloride): 0 (7×) and 10
- analgesia score, 90 min ([3]; per mouse, free BUP 0.25%, 150 ul, 0.375 mg Bup, 90 min): 0
- analgesia score, 15 min ([3]; per mouse, free BUP 0.25%, 300 ul, 0.75 mg Bup, 15 min): 1
- analgesia score, 30 min ([3]; per mouse, free BUP 0.25%, 300 ul, 0.75 mg Bup, 30 min): 1
- analgesia score, 45 min ([3]; per mouse, free BUP 0.25%, 300 ul, 0.75 mg Bup, 45 min): 1
- analgesia score, 60 min ([3]; per mouse, free BUP 0.25%, 300 ul, 0.75 mg Bup, 60 min): 1
- analgesia score, 75 min ([3]; per mouse, free BUP 0.25%, 300 ul, 0.75 mg Bup, 75 min, hydrochloride): 0 and 1 (7×)
- analgesia score, 90 min ([3]; per mouse, free BUP 0.25%, 300 ul, 0.75 mg Bup, 90 min, hydrochloride): 0 and 1 (5×) and 10 (2×)
- analgesia score, 105 min ([3]; per mouse, free BUP 0.25%, 300 ul, 0.75 mg Bup, 105 min, hydrochloride): 0 (5×) and 10 and 1 (2×)
- analgesia score, 120 min ([3]; per mouse, free BUP 0.25%, 300 ul, 0.75 mg Bup, 120 min, hydrochloride): 0 (7×) and 10
- analgesia score, 135 min ([3]; per mouse, free BUP 0.25%, 300 ul, 0.75 mg Bup, 135 min): 0
- analgesia score, 15 min ([3]; per mouse, free BUP 0.50%, 150 ul, 0.75 mg Bup, 15 min): 1
- analgesia score, 30 min ([3]; per mouse, free BUP 0.50%, 150 ul, 0.75 mg Bup, 30 min): 1
- analgesia score, 45 min ([3]; per mouse, free BUP 0.50%, 150 ul, 0.75 mg Bup, 45 min): 1
- analgesia score, 60 min ([3]; per mouse, free BUP 0.50%, 150 ul, 0.75 mg Bup, 60 min, hydrochloride): 1 (7×) and 10
- analgesia score, 75 min ([3]; per mouse, free BUP 0.50%, 150 ul, 0.75 mg Bup, 75 min, hydrochloride): 1 (6×) and 0 and 10
- analgesia score, 90 min ([3]; per mouse, free BUP 0.50%, 150 ul, 0.75 mg Bup, 90 min, hydrochloride): 0 (4×) and 10 (2×) and 1 (2×)
- analgesia score, 105 min ([3]; per mouse, free BUP 0.50%, 150 ul, 0.75 mg Bup, 105 min): 0

Structure (SMILES): CCCCN1CCCCC1C(=O)Nc1c(C)cccc1C (stereo not shown) [compound 9]
- Free bup concentration(%) after injection through G31 syringe needle ([4]; analyzed after the experiment was finished): 0.25%
- Free bup concentration(%) after injection through G31 syringe needle ([4]; analyzed before starting the experiment): 0.25%
- analgesia duration, comparison of Example 2 formulations ([3]; Example 2, mice): shortest analgesia duration
- analgesia score 5′ ([3]; Example 2 group 9, per mouse, 0.25% bup 300 ul, 5 min): 1
- analgesia score 30′ ([3]; Example 2 group 9, per mouse, 0.25% bup 300 ul, 30 min): 1
- analgesia score 60′ ([3]; Example 2 group 9, per mouse, 0.25% bup 300 ul, 60 min): 1
- analgesia score 75′ ([3]; Example 2 group 9, per mouse, 0.25% bup 300 ul, 75 min, listed as standard free bupivacaine): 1 (3×) and 0 (2×)
- analgesia score 90′ ([3]; Example 2 group 9, per mouse, 0.25% bup 300 ul, 90 min, listed as standard free bupivacaine): 1 (3×) and 0 (2×)
- analgesia score 105′ ([3]; Example 2 group 9, per mouse, 0.25% bup 300 ul, 105 min, listed as standard free bupivacaine): 1 and 0 (2×)
- analgesia score 120′ ([3]; Example 2 group 9, per mouse, 0.25% bup 300 ul, 120 min, listed as standard free bupivacaine): 0.5 and 0 (2×)
- analgesia score 135′ ([3]; Example 2 group 9, per mouse, 0.25% bup 300 ul, 135 min): 0
- analgesia score 150′ ([3]; Example 2 group 9, per mouse, 0.25% bup 300 ul, 150 min): 0
